In article PMC7238388, “Biological Evaluation of Newly Synthesized Biaryl Guanidine Derivatives to Arrest β-Secretase Enzymatic Activity Involved in Alzheimer's Disease” (BioMed Research International, 2020):
Where two headings read alike, the source gives them in different places. Values belong to the compound of their own block, whether it stands above or below them.

How the values were obtained:
BACE1 enzyme = biological target: T1, BACE1 enzyme (Homo sapiens, UniProt P56817); test: BACE1 FRET-based inhibitory activity assay (Sigma-Aldrich kit CS0010); type: biochemical
T1 construct: purchased Sigma-Aldrich CS0010
Experimental: BACE1 inhibitory activity was carried out by adopting the procedures described by the Sigma-Aldrich FRET-based assay activity kit (product # CS0010).
Briefly, the assay was carried out in a fixed volume of 100 μl with the BACE1 substrate (20 μl, 50 μM), assay buffer (78 μl/78-X μl, pH 4.5), test sample(s) (X μl, 100 μM), and BACE1 enzyme (2 μl, ~0.3 unit/μl) incubated at 37°C for 75 min in 96-well microplate reaction mixture. The baseline fluorescence (null time) signal was noticed (at 320 nm) immediately after the addition of BACE1 enzymes while emission signals were monitored at 405 nm at 25°C. Both the enzyme and the substrate were prepared in the buffer while tested samples dissolved primarily in DMSO (5%) subsequently in serially diluted buffer solution in a desired volume of 2 μl, 3 μl, and 5 μl having 200 pmol, 300 pmol, and 500 pmol concentration, respectively. A standard curve was prepared between fluorescent unit (FU) and standard solution (100 μM, 100-500 pmol, and 1-5 μl) to find out 50% BACE1 cleaving activity. The sample blank (buffer with substrate) was treated as the negative control while the positive control was the solution of the buffer with substrate and enzyme mixture (http://www.sigmaaldrich.com). Finally, IC50 of the intended compounds were calculated via GraphPad Prism v8 software.

[1] = test system: AlCl3-induced mouse models; test: Novel object recognition memory test in AlCl3-induced AD model mice; type: in vivo, BALB/c mice; conditions: AD model treated with compound; control 64.44 ± 2.50 s, AD model 31.80 ± 2.00 s; p < 0.05
Experimental: (§1) Male BALB/c mice (3.5 to 5.5 months of age) were purchased from National Institute of Health (NIH) Islamabad, Pakistan. All experiments were performed by following the rules and regulations in accordance with the Helsinki Declaration after getting permission from the Departmental Review Committee (Ref. # PHM.Eth/CS-M01/18-001 dated 05/2018). Animals were kept in standard cages and provided food, water, and cleanliness in accordance with the documented protocols. Moreover, they were categorized into nine groups (n = 10) for experimental purposes.
(§2) The control group of mice was treated with drinking water having aluminum chloride (17 mg/kg) and tape water for a period of five weeks. Synthesized ligands (20-55 mg/kg) were administered to neutralize the AlCl3 effects and to design treated mouse groups. All the behavioral tests were performed on days 28 to 34 (08:30 am to 4:30 pm at 25 ± 2°C). Animals were shifted 20 minutes prior to the experimentation room to get accustomed with the test environment. Trials were recorded via videocam, and results were obtained to reveal the final conclusions.
The novel object recognition memory test is an additional procedure to describe and evaluate the memory of the rodents. The entire methodology was performed in a specific designed box of dimensions about 25 cm × 25 cm × 25 cm at daytime (25 ± 2°C). […]

[2] = test system: AlCl3-induced neurotoxic mice; test: Morris water maze test in AlCl3-induced neurotoxicity mice; type: in vivo, BALB/c mice
Experimental: as §1, §2
To evaluate 3D spatial recalling memory of the animals under observations, an authentic and sensitive assay “Morris water maze test” was carried out.
The apparatus used for this test has a round pool with a 120 cm diameter and a 60 cm of depth. The pool is divided into 4 hypothetical quadrants North, West, South, and East. The experiment began on day 28, and 5 trials were executed each day. The mouse was given 1 min to find out the hidden platform with a 10 min interval between the two successive trials. The usual time essential for a mouse to reach at the platform was recorded, and an average of 5 trials was presumed as the escape latency of the animal for that day. On the 32nd day of intervention, a probe test was executed when there was no platform, with a different release position. The spatial memory of the mouse was estimated by computing the time spent by the mouse in the quadrant in which the platform was formerly located. […]

[3] = BACE1 FRET assay, pH 4.5, 37°C, 75 min, read-out: IC50

T1 sequence (P56817 46-501): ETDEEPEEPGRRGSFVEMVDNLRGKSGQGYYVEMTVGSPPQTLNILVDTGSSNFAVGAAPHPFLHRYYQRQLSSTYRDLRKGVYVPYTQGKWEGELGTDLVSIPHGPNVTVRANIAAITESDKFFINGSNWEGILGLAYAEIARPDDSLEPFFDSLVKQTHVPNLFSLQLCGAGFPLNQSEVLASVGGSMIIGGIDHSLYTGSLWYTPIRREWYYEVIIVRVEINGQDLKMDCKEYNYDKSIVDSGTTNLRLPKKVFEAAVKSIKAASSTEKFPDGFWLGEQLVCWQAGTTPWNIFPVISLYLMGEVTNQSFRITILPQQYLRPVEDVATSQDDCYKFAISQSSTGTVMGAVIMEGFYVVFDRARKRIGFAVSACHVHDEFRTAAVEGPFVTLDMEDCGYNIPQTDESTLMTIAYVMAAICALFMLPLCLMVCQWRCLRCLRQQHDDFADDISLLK

Structure (SMILES): N=C(Nc1ccccc1F)Nc1ccccc1F [Compound 1, 1,3-bis(2-fluorophenyl)guanidine]
IC50 (BACE1 enzyme; [3]): 85 µM
melting point: 130 to 132 °C

Structure (SMILES): N=C(Nc1ccccn1)Nc1ccccn1 [Compound 4, 1,3-di(pyridin-2-yl)guanidine]
IC50 (BACE1 enzyme; [3]): 9 µM
melting point: 140 to 142 °C

Structure (SMILES): N=C(Nc1ccc(Br)c2ccccc12)Nc1ccc(Br)c2ccccc12 [Compound 2, 1,3-bis(4-bromonaphthalen-1-yl)guanidine]
IC50 (BACE1 enzyme; [3]): 235 µM
melting point: 128 to 130 °C

Structure (SMILES): N=C(Nc1cc(F)c2ccccc2c1)Nc1cc(F)c2ccccc2c1 [Compound 6, 1,3-bis(4-fluoronaphthalen-2-yl)guanidine]
IC50 (BACE1 enzyme; [3]): 0.102 µM
melting point: 126 to 128 °C

Structure (SMILES): N=C(Nc1ccc2ncccc2c1)Nc1ccc2ncccc2c1 [Compound 5, 1,3-di(quinolin-6-yl)guanidine]
IC50 (BACE1 enzyme; [3]): 0.091 µM
melting point: 133 to 134 °C

Structure (SMILES): N=C(Nc1ccccc1[N+](=O)[O-])Nc1ccccc1[N+](=O)[O-] [Compound 3, 1,3-bis(2-nitrophenyl)guanidine]
IC50 (BACE1 enzyme): 259 µM
melting point: 136 to 138 °C

More lines, main results first:

IC50 (BACE1 enzyme; [3]): 172 µM
melting point: 160 to 162 °C
Structure (SMILES): N=C(Nc1ccc(Cl)cc1F)Nc1ccc(Cl)cc1F [Compound 11, 1,3-bis(4-chloro-2-fluorophenyl)guanidine]

IC50 (BACE1 enzyme; [3]): 103 µM
melting point: 146 to 148 °C
Structure (SMILES): N=C(Nc1ccc(F)cc1)Nc1ccc(F)cc1 [Compound 12, 1,3-bis(4-fluorophenyl)guanidine]

IC50 (BACE1 enzyme; [3]): 159 µM
melting point: 146 to 148 °C
Structure (SMILES): N=C(Nc1ccc2ccccc2c1)Nc1ccc2ccccc2c1 [Compound 7, 1,3-di(naphthalen-2-yl)guanidine]

melting point: 128 to 130 °C
Structure (SMILES): N=C(Nc1cnc(F)c(F)c1)Nc1cnc(F)c(F)c1 [Compound 9, 1,3-bis(5,6-difluoropyridin-3-yl)guanidine]
exploration time [1]: 53.80 ± 2.15 s
escape latency ([2]; day 5, AlCl3-induced mice treated with compound, AlCl3 group 50.60 ± 3.70, control 20.20 ± 2.01, p < 0.05, in s (unit assumed)): 27.72 ± 2.60
number of crossings of the targeted quadrant ([2]; probe test, AD model 6.10 ± 1.0, control 19.80 ± 1.90): 16.70 ± 1.07
time spent in exploration of the targeted quadrant ([2]; probe test, per hundred of total time (Figure 2c), AD-induced 23.6 ± 2.01, control 49.60 ± 2.35): 41.07 ± 2.5

IC50 (BACE1 enzyme; [3]): 321 µM
BACE1 inhibition (BACE1 enzyme; FRET assay, at 500 pmol): 35%
melting point: 250 to 252 °C
Structure (SMILES): N=C(Nc1ccc(Br)cc1)Nc1ccc(Br)cc1 [Compound 10, 1,3-bis(4-bromophenyl)guanidine]

IC50 (BACE1 enzyme; [3]): 71 µM
Structure (SMILES): N=C(Nc1ccc(F)c(F)c1)Nc1ccc(F)c(F)c1 [Compound 13, 1,3-bis(3,4-difluorophenyl)guanidine]

IC50 (BACE1 enzyme; [3]): 229 µM
melting point: 76 to 78 °C
Structure (SMILES): N=C(Nc1cc(C(F)(F)F)cc(C(F)(F)F)c1)Nc1cc(C(F)(F)F)cc(C(F)(F)F)c1 [Compound 8, 1,3-bis(3,5-bis(trifluoromethyl)phenyl)guanidine]
